Two compounds from PMC11096368, “Transcriptomic signature, bioactivity and safety of a non-hepatotoxic analgesic generating AM404 in the midbrain PAG region” (Scientific Reports, 2024) can be followed below.

Data set [1] has as its system CD-1 male mice. Conditions: for Mortality by 72 h: oral gavage, n = 10. The procedure: This analysis was critical for robustly comparing their toxic effects, with a particular focus on mortality at equivalent molar concentrations.
CD-1 male mice obtained from Charles River Laboratories underwent a one-week acclimation period. They were housed under a 12-h day/night cycle, with unrestricted access to food and water. Before experimentation, mice were fasted for 15 h. […] Each treatment group consisted of 10 mice. Post-dosing, the mice were monitored at 6-h intervals over 72 h for signs of becoming moribund. An investigator blinded to the treatment groups conducted the moribund state assessment.

In data set [2] the test system is male Sprague–Dawley rats. Description: Neuropharmacological profile, modified Irwin/Functional Observational Battery (GLP). In kind it is in vivo. The settings on record: for Body temperature versus vehicle: 1 h post-dose. As for the experimental part: Any potential neuropharmacological effects of orally administered SRP-001 in rats were assessed in three groups of eight male Sprague–Dawley rats. Each was orally administered SRP-001 at a single dose of 220, 440, or 660 mg/kg. Vehicle (10% labrasol: 10% DMSO: 80% PEG400) was administered to an additional group of eight rats. The dose volume was 10 mL/kg. […] All observations were made at ± 5 min for the observations through 1 h post-dose and ± 15 min for the later observations. Body temperature was measured 1 h following dose administration.

Data set [3] can be described thus: Phase 1 multiple ascending dose (MAD) pharmacokinetics. The format is in vivo, human. Conditions: for half-life: human, plasma, oral. The procedure: A randomized, double-blind, placebo-controlled Phase 1 trial (ClinicalTrials.gov identifier: NCT05484414) (02/08/2022) was conducted to assess the safety, tolerability, food effect, pharmacokinetics (PK), and pharmacodynamics (PD) of single and multiple ascending doses of SRP-001 (Quotient Sciences, Miami FL USA; Fig. 3h - k and Methods). The trial was conducted in accordance with the International Council for Harmonisation of Technical Requirements for Pharmaceuticals for Human Use (ICH), Guideline for GCP: Consolidated Guidance (E6), attained Institutional Review Board approval, and all applicable regulatory requirements for Phase 1, First in Human clinical trials. Safety measurements and plasma samples to determine PK parameters were collected throughout the study for all subjects and reviewed by the Safety Review Committee. PK stopping criteria were established to assure that systemic exposure to SRP-001 was less than or equal to the systemic exposure achieved at the NOAEL doses in the 28-day repeat-dose toxicology studies in the rat and dog. The trial’s Safety Advisory Committee has approved the publication of the Phase 1 results.
SRP-001 was administered as an oral nanosuspension to 56 healthy volunteers across five Single Ascending Dose (SAD) and two Multiple Ascending Dose (MAD) cohorts, with 42 subjects receiving SRP-001 and 14 receiving a placebo.
A two-part randomized, double-blind, placebo-controlled Phase 1 trial was conducted to assess the safety, tolerability, PK and PD of SRP-001 ascending doses (Quotient Sciences, Miami, FL, USA). The study was conducted in accordance with the International Council for Harmonisation of Technical Requirements for Pharmaceuticals for Human Use (ICH), Guideline for GCP: Consolidated Guidance (E6), and applicable regulatory requirements(s) including clinical research guidelines established by the Basic Principles defined in the U.S. 21 CFR Parts 50, 56, and 312 and the principles enunciated in the Declaration of Helsinki (revised version Fortaleza 2013). The clinical protocol and informed consent form were reviewed and approved by an Institutional Review Board (IRB; Advarra IRB, 6100 Merriweather Drive, Suite 600, Columbia, MD 21,044; Quotient Protocol No. SRP-101 and Quotient Sciences Study No. QSC205130; Quotient Sciences Miami, 3898 NW 7th Street, Miami, FL 33,126.). The study comprises a SAD (Part 1) assessment that includes a food effect assessment that contributes data to inform a subsequent MAD (Part 2) dose-ranging study. Safety measurements were collected throughout the study for all subjects. Blood samples were collected to determine the PK parameters of SRP-001 (ClinicalTrials.gov identifier: NCT05484414) (02/08/2022).

The subject of data set [4] is male Sprague–Dawley rats. Nature of the data set: Pulmonary function evaluation in conscious rats (GLP). In kind it is in vivo. The settings on record: oral, 220, 440, 660 mg/kg. As for the experimental part:
The potential effects of orally administered SRP-001 on respiratory rate, tidal volume, and minute volume in conscious male Sprague–Dawley rats was studied in 24 male rats. The rodents were trained for two days in the head-out plethysmograph chamber for 15–17 min each prior to the experiment. On the day of dosing, each animal was weighed and placed in the plethysmograph chamber, and baseline respiratory parameters were obtained for 5 min following an approximately 5-min stabilization period. The rats were then removed from the chamber and dosed by oral gavage. Three groups of six male Sprague–Dawley rats each were orally administered SRP-001 at a single dose of 220, 440, or 660 mg/kg at a dose volume of 10 mL/kg. […] Following dosing, each animal was returned to its designated plethysmograph chamber, and the respiratory parameters were recorded at 30 min (± 5 min), 2, 4, and 6 h (± 15 min). Animals were allowed to stabilize in the plethysmograph chamber for at least 5 min before each reading was taken. The following parameters were acquired, recorded, and analyzed using Ponemah Physiology Platform (Ponemah v.5.20 Pulmonary); Respiratory rate, Tidal Volume, and Minute Volume, Values for the test article treated group were compared to the vehicle control values using a two-way repeated measures ANOVA followed by a Bonferroni Multiple Comparison Test (SigmaStat, v. 4.0). […]

Data set [5] concerns dog. Description: Maximum tolerated dose study, single dose (non-GLP). In kind it is in vivo. The procedure:
To determine the appropriate doses, maximum tolerated dose studies (non-GLP) were conducted prior to the definitive GLP systemic toxicity studies. SRP-001 was evaluated by a full battery of GLP-compliant toxicity studies. Systemic toxicity was evaluated in Sprague–Dawley rats and Beagle dogs by oral administration over 28 days (Supplementary Fig. 19 and Supplementary Table 2). Importantly, no treatment-related adverse effects were seen during 28 days of daily oral doses of SRP-001 in rats at doses up to 1500 mg/kg/day or in dogs at doses up to 330 mg/kg/day.

Structures are written as SMILES. “Also recorded” adds a separate entry of the source. Read-outs that look alike come from different tables or passages of the source.

As for `CC(=O)Nc1ccc(O)cc1` [ApAP, acetaminophen, reference compound], the figures for the “Mortality by 72 h” value in data set [1] (1984 (ApAP 300 mg/kg)), in data set [1] (3969 (ApAP 600 mg/kg)) and in data set [1] (5954 (ApAP 900 mg/kg)) were 1/10, 3/10 and 7/10, respectively. The “Mortality within 72 h” value in data set [1] (increasing equimolar doses, highest mortality reached) was found to be 70%.
Consider `CCN(CC)C(=O)c1ccccc1S(=O)(=O)NCC(=O)Nc1ccc(O)cc1` [SRP-001, N,N-diethyl-2-[[2-(4-hydroxyanilino)-2-oxo-ethyl]sulfamoyl]benzamide], for which the figures for the “Body temperature versus vehicle” value in data set [2] (220 or 440 mg/kg) and in data set [2] (high-dose group (660 mg/kg)) were “not affected” and “significantly (p ≤ 0.05) lower; also recorded: lower body temperature; also recorded: Decreased body temp”, respectively. In addition, the “Neuropharmacological or clinical signs” value in data set [2] (oral, 220, 440, 660 mg/kg, through 24 h post-dose) was “No apparent neuropharmacological or clinical signs; also recorded: No apparent neuropharmacological effects”. Also, in data set [3] (Phase 1 MAD cohort), the “PK parameters on Day 5 versus Day 1” value is reported as “decrease”. Besides, the half-life in data set [3] (500 mg, MAD, 500 mg dose, Day 1, read-out: Geometric mean T1/2 (converted)) is 3.06 h; in data set [3] (500 mg, MAD, 500 mg dose, Day 5, read-out: Geometric mean T1/2 (converted)), 4.92 h; in data set [3] (1000 mg, MAD, 1,000 mg dose, Day 1, read-out: Geometric mean T1/2 (converted)), 4.05 h; in data set [3] (1000 mg, MAD, 1,000 mg dose, Day 5, read-out: Geometric mean T1/2 (converted)), 9.77 h; in data set [3] (MAD cohorts, read-out: Arithmetic mean T1/2 (converted)), 5.57 h; in data set [3] (Phase 1 trial, read-out: Half-life), 4.9 to 9.8 h. Moreover, the “Respiratory findings (respiratory rate, tidal volume, minute volume)” value in data set [4] is recorded as “did not induce any significant effects; also recorded: No significant findings”. Moreover, in data set [5], the “Single doses that did not result in any mortality” value is recorded as at most 1200 mg/kg.
